Patent publication US20100324285A1, “ANTIINFLAMMATORY AGENT COMPRISING 2-AMINOPHENOL OR DERIVATIVE THEREOF AS ACTIVE INGREDIENT” (priority 2006, published 2010)
pIC50: −log10 of the molar value. Like-named read-outs stand apart in the source and are kept apart here.

Experiments:
COX-1 = molecular target: T1, COX-1 (Ovis aries, UniProt P05979); test: COX Inhibitor Screening Assay Kit, COX-1; assay type: biochemical
T1 construct: purchased Cayman Chemical Company
T1 sequence (P05979 25-600): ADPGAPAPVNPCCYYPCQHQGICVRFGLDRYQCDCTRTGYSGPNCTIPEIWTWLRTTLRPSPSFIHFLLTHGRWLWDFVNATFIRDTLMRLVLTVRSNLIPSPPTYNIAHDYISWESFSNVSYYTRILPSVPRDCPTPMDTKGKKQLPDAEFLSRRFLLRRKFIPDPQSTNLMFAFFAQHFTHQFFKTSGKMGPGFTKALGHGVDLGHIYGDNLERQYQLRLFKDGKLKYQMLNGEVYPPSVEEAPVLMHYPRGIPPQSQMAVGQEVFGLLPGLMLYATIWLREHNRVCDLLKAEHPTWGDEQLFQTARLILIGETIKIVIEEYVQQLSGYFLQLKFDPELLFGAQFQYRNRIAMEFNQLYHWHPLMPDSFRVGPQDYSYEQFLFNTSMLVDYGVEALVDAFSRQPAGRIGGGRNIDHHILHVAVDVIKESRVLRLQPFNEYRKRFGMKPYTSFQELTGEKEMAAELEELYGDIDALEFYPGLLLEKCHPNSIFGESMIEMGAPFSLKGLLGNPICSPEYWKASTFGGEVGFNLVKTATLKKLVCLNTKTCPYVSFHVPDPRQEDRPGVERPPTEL
Description: (§1) Fifty percent inhibitory concentration (IC50) means the concentration of test sample necessary for inhibiting PGE2 synthesis by 50% compared to non-inhibitory control sample. It can be also determined by measuring the amount of PGE2 produced by adding test samples to cells having cyclooxygenase activity. COX-1/COX-2 ratio means the ratio of […], and the higher the ratio is, the more specific to COX-2 the agent is.
(§2) To verify the results of Experiment 2, it was investigated that whether the activity of COXs, essential enzymes for PGE2 synthesis system, can be inhibited. […] An experimental system without the test samples was set as control. The residual activity of COX-1 or COX-2 was determined as relative activity versus control.

COX-2 [1] = molecular target: T2, COX-2 (Homo sapiens, UniProt P35354); test: COX Inhibitor Screening Assay Kit, COX-2; assay type: biochemical
T2 sequence (P35354 18-604): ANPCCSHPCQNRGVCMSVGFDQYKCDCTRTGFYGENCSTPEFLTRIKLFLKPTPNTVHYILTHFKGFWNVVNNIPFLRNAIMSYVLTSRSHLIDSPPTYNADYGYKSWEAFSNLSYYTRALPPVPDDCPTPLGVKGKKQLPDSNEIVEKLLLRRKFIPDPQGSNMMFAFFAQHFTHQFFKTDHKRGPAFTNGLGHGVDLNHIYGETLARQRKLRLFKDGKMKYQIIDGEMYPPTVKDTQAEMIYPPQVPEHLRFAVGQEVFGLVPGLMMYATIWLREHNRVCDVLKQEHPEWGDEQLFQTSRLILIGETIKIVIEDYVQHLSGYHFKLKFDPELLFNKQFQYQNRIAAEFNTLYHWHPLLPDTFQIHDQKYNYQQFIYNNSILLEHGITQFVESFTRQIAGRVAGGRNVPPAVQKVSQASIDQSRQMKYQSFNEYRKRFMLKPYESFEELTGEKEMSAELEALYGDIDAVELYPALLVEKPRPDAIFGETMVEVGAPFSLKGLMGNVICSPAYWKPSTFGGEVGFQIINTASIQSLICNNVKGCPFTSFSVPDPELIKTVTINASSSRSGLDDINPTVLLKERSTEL
Description: as §1, §2

[2] = tested on: Mouse melanoma cell line B16; test: Living cell rate of B16 cells; settings: 5 days, versus control
Method: (§3) As control, a system with no test sample was provided. […] The amount of protein was measured by conventional Bradfordmethod and the amount of melanin per 1 mg of protein was calculated. The amount of melanin (%) was calculated according to Formula 4, and the living cell rate (%) was calculated according to Formula 5.

[3] = tested on: Mouse melanoma cell line B16; test: Melanin synthesis in B16 cells; assay type: cell-based; settings: for Amount of melanin (%): 5 days, per mg protein versus control
Method: as §3
As control, a system with no test sample was provided. […] The amount of protein was measured by conventional Bradford method and the amount of melanin per 1 mg of protein was calculated. The amount of melanin (%) was calculated according to Formula 4.

RAW264.7 cells [4] = test: NO production by macrophage RAW264.7, Griess method; assay type: cell-based, mouse; settings: LPS + IFN-γ, 2 days, relative level versus control
Description: As macrophage cells, RAW264.7 cell strain from mouse or macrophage cells obtained from laboratory animals such as mouse can be used. The amount of produced NO can be measured by conventional Griess method. […] RAW264.7 cells, a murine macrophage cell strain, were suspended in PRMI1640 medium supplied with 10% (v/v) fetal calf serum (hereinafter abbreviated as “FCS”) to give a cell suspension with a cell concentration of 1×10^6 cells/ml. […] The experimental system without the test samples described above was set as control. […] NO production, PGE2 production and macrophage growth are indicated as relative levels versus controls.

COX-2 [5] = molecular target: T2, COX-2; settings: nonsteroidal COX inhibitors, comparison values, source not given; cited from earlier work
RAW264.7 cells [6] = test: PGE2 production by macrophage RAW264.7, PGE2-EIA kit; assay type: cell-based, mouse; settings: LPS + IFN-γ, 2 days, relative level versus control
Description: (§4) RAW264.7 cells, a murine macrophage cell strain, were suspended in PRMI1640 medium supplied with 10% (v/v) fetal calf serum (hereinafter abbreviated as “FCS”) to give a cell suspension with a cell concentration of 1×10^6 cells/ml. […] The experimental system without the test samples described above was set as control. […] NO production, PGE2 production and macrophage growth are indicated as relative levels versus controls.

RAW264.7 cells [7] = test: Macrophage growth, living cell count; assay type: cell-based, mouse; settings: 2 days, relative level versus control
Description: as §4

[8] = read-out: residual activity of COX-1
[9] = read-out: residual activity of COX-2

Nc1ccccc1O [2-Aminophenol]
pIC50 (COX-1): 4.55 | remaining activity at 8 µM (COX-1; [8]): 66% | remaining activity at 16 µM (COX-1; [8]): 73% | remaining activity at 32 µM (COX-1; [8]): 42% | pIC50 (COX-2 [1]): 4.56 | COX-1/COX-2 ratio (COX-2 [1]; ratio of IC50 values of Table 2): about 1 | remaining activity at 8 µM (COX-2 [1]; [9]): 72% | remaining activity at 16 µM (COX-2 [1]; [9]): 60% | remaining activity at 32 µM (COX-2 [1]; [9]): 47% | Living cell rate (%) ([2]; 1 μM): 95% | Living cell rate (%) ([2]; 2 μM): 79% | Living cell rate (%) ([2]; 4 μM): 52% | Amount of melanin (%) ([3]; 1 μM): 62% | Amount of melanin (%) ([3]; 2 μM): 55% | Amount of melanin (%) ([3]; 4 μM): 50% | inhibiting effect on melanin production higher than that of kojic acid ([3]; in the concentration at which the cell-growth was not inhibited): 1.000 fold

CC(=O)Oc1ccccc1C(=O)O [AS, aspirin]
NO production (%) (RAW264.7 cells [4]; 0.16 μM): 101% | NO production (%) (RAW264.7 cells [4]; 0.31 μM): 102% | NO production (%) (RAW264.7 cells [4]; 0.63 μM): 102% | NO production (%) (RAW264.7 cells [4]; 1.3 μM): 93% | NO production (%) (RAW264.7 cells [4]; 2.5 μM): 95% | NO production (%) (RAW264.7 cells [4]; 5.0 μM): 90% | NO production (%) (RAW264.7 cells [4]; 10 μM): 86% | COX-1/COX-2 ratio (COX-2 [5]): 0.24 | PGE2 production (%) (RAW264.7 cells [6]; 0.16 μM): 98% | PGE2 production (%) (RAW264.7 cells [6]; 0.31 μM): 99% | PGE2 production (%) (RAW264.7 cells [6]; 0.63 μM): 79% | PGE2 production (%) (RAW264.7 cells [6]; 1.3 μM): 47% | PGE2 production (%) (RAW264.7 cells [6]; 2.5 μM): 33% | PGE2 production (%) (RAW264.7 cells [6]; 5.0 μM): 8% | PGE2 production (%) (RAW264.7 cells [6]; 10 μM): 3% | Macrophage growth (%) (RAW264.7 cells [7]; 0.16 μM): 103% | Macrophage growth (%) (RAW264.7 cells [7]; 0.31 μM): 100% | Macrophage growth (%) (RAW264.7 cells [7]; 0.63 μM): 95% | Macrophage growth (%) (RAW264.7 cells [7]; 1.3 μM): 85% | Macrophage growth (%) (RAW264.7 cells [7]; 2.5 μM): 86% | Macrophage growth (%) (RAW264.7 cells [7]; 5.0 μM): 89% | Macrophage growth (%) (RAW264.7 cells [7]; 10 μM): 89%
